Here are results for two compounds from patent publication US4981847A, “Tricyclic compounds” (Fujisawa Pharmaceutical Co., Ltd., priority 1988, dated 1991).

pIC50: −log10 of the molar value.

For assay [1], the target named is T1, rat pancreatic CCK receptors (Rattus norvegicus, UniProt P30551).
T1 construct: rat pancreatic CCK receptors; from tissue; host or cells: rat pancreas
T1 sequence (P30551 1-444): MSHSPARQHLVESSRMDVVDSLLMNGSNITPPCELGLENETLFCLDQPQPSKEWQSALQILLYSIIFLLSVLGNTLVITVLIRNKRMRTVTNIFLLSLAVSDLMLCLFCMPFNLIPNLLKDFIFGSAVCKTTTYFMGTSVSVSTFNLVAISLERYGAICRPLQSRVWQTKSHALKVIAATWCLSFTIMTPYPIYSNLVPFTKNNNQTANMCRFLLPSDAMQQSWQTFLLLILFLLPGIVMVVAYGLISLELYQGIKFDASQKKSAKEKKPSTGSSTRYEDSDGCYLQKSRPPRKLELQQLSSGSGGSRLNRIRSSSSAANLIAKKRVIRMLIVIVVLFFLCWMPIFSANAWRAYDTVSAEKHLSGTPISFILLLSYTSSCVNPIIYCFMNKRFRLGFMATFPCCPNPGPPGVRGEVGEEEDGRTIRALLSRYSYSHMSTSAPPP
Put plainly: Inhibition of binding of [125I] CCK-8 to rat pancreatic CCK receptors. The source says:
(B) Inhibition of binding of [^125 I] CCK-8 to rat pancreatic CCK receptors by test compound B (CCK antagonism).

Assay [2] deals with T2, guinea pig cerebral cortical CCK receptors (Cavia porcellus, UniProt H0VZC5).
T2 construct: guinea pig cerebral cortical CCK receptors; from tissue; host or cells: guinea pig cerebral cortex
Put plainly: Inhibition of binding of [125I] CCK-8 to guinea pig cerebral cortical CCK receptors. The source says:
(C) Inhibition of binding of [^125 I] CCK-8 to guinea pig cerebral cortical CCK receptors by test compound B (CCK antagonism).

Assay [3] has as its system caerulein-induced pancreatitis. Put plainly: Inhibitory effect on caerulein-induced pancreatitis in mice. It is filed as in vivo. As to conditions: Mus musculus. The source says:
(D) Inhibitory effect of test compound B on caerulein-induced pancreatitis in mice.

Assay [4] deals with CCK-8-induced inhibition of gastric emptying. Put plainly: Effect upon CCK-8-induced inhibition of gastric emptying in mice (CCK antagonism). As to conditions: Mus musculus. It is filed as in vivo. The source says: Effect of test compound B upon CCK-8-induced inhibition of gastric emptying in mice (CCK antagonism).
Assay [5] deals with CCK receptor. Put plainly: CCK receptor antagonism in isolated fundic circular muscle from guinea pig stomach. It is filed as cell-based. As to conditions: test compound 1×10^-6 M, CCK-8 3.2×10^-7 M, 37° C. How it is done: (A) CCK receptor antagonism in isolated fundic circular muscle from guinea pig stomach
The strip of circular muscle suspended in 25 ml organ bath containing Krebs' bicarbonate solution (NaCl 118 mM, KCl 4.8 mM, KH2 PO4 1.2 mM, MgSO4 1.2 mM, CaCl2 2.5 mM, NaHCO3 25 mM, glucose 11 mM and bovine serum albumin 0.1%) maintained at 37° C. and gassed with 95% O2 and 5% CO2.
The strip was placed under an initial tension of 0.5 g and equilibrated for 60 minutes during which the bath volume was replaced every 15 minutes. Isometric contraction was measured using a force transducer. CCK-8 (3.2×10^-7 M) was added to the bathing solution and the contractile force was measured After washing out CCK-8, test compound A (1×10^-6 M) was added. 5 minutes later, CCK-8 was added and the contractile force was measured. CCK antagonism was calculated by comparing the contractile force induced by CCK in the absence or presence of test compound A.

T2 sequence (H0VZC5 entry or part of it): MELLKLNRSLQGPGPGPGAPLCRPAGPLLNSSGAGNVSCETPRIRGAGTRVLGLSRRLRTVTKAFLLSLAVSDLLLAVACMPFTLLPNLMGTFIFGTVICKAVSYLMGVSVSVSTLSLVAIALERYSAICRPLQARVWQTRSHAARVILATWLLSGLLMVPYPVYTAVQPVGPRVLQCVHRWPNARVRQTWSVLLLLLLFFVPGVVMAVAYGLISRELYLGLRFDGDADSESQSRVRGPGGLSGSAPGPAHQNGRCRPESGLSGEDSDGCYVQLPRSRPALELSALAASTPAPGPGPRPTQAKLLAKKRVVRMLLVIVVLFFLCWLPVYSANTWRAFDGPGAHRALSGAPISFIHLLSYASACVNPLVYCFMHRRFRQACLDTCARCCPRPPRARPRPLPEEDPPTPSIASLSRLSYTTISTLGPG

On to `O=C(N[C@H]1N=C(c2ccccc2F)c2cccc3c2N(CC3)C1=O)c1cc2ccccc2[nH]1` [test compound B, (3S)-1-(2-Fluorophenyl)-3,4,6,7,-tetrahydro-3-(2-indolylcarbonylamino)-4-oxopyrrolo[3,2,1-jk][1,4]-benzodiazepine], for which the pIC50 (usually the negative decadic logarithm of the IC50, by convention in mol/L) in assay [1] is 9.17; in assay [2], 7.51. The ED50 (usually the midpoint of the dose-response relation) in assay [3] was found to be 0.022 mg/kg; in assay [4], 0.01 mg/kg.
As for `O=C(NC1N=C(c2ccccc2F)c2cccc3c2N(CC3)C1=O)c1cc2ccccc2[nH]1` (racemic) [test compound A, (3RS)-1-(2-Fluorophenyl)-3,4,6,7-tetrahydro-3-(2-indolylcarbonylamino)-4-oxopyrrolo[3,2,1-jk][1,4]benzodiazepine], in assay [5], the “Inhibition (%) of CCK-8-induced contraction” value is on record as 90.4%.
